Here are results for one molecule from patent US10695433B2, “Pyrrolobenzodiazepine-antibody conjugates” (MEDIMMUNE LIMITED, priority 2012, dated 2020).

In the assay the test system is K562 human chronic myeloid leukaemia cells. Nature of the assay: K562 assay (MTT cytotoxicity of released compounds). The following applies: drug for 1 hour or 96 hours, MTT readout. The assay is classed as cell-based. On the procedure: K562 human chronic myeloid leukaemia cells were maintained in RPM1 1640 medium supplemented with 10% fetal calf serum and 2 mM glutamine at 37° C. in a humidified atmosphere containing 5% CO2 and were incubated with a specified dose of drug for 1 hour or 96 hours at 37° C. in the dark. The incubation was terminated by centrifugation (5 min, 300 g) and the cells were washed once with drug-free medium. Following the appropriate drug treatment, the cells were transferred to 96-well microtiter plates (10^4 cells per well, 8 wells per sample). Plates were then kept in the dark at 37° C. in a humidified atmosphere containing 5% CO2. The assay is based on the ability of viable cells to reduce a yellow soluble tetrazolium salt, 3-(4,5-dimethylthiazol-2-yl)-2,5-diphenyl-2H-tetrazolium bromide (MTT, Aldrich-Sigma), to an insoluble purple formazan precipitate. Following incubation of the plates for 4 days (to allow control cells to increase in number by approximately 10 fold), 20 μL of MTT solution (5 mg/mL in phosphate-buffered saline) was added to each well and the plates further incubated for 5 h. The plates were then centrifuged for 5 min at 300 g and the bulk of the medium pipetted from the cell pellet leaving 10-20 μL per well. […] The optical density was then read at a wavelength of 550 nm on a Titertek Multiscan ELISA plate reader, and a dose-response curve was constructed.

Usually IC50 stands for the concentration that inhibits the measured activity by half.

Consider `COc1cc2c(cc1OCCCCCOc1cc3c(cc1OC)C(=O)N1C=C(C)C[C@H]1C=N3)N=C[C@@H]1CC(C)=CN1C2=O` [RelE], for which the IC50 was 0.425 nM.
